Data taken from patent publication US11142525B2 (Pfizer Inc., priority 2018, dated 2021).

What was measured:
[1] = target: human full-length recombinant HPK1 (Homo sapiens (Human), UniProt Q92918); assay: HPK1 biochemical enzyme assay, microfluidic mobility shift assay (MSA); conditions: HPK1 mobility shift assay; read-out: HPK1 Enzyme Assay_Ki
[2] = test system: phospho-SLP-76 (Ser376) in Jurkat cells; assay: Phospho-SLP-76 (Ser376) Homogeneous Time Resolved Fluorescence (HTRF) assay in Jurkat cells; assay type: cell-based; conditions: Homo sapiens, Phospho-SLP-76 (Ser376) HTRF, anti-CD3 stimulation, read-out: SLP76 Assay_IC50
In short: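 Phospho-SLP-76 in lysates was read by sandwich HTRF and IC50 derived by four-parameter nonlinear regression. Before lysis, cells had received compound for 30 min (11-point, 3-fold series from 10 μM, 0.1% DMSO), followed by anti-CD3 F(ab)2 complex (200 μg/mL, 15 min, 37 °C).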

Chain of human full-length recombinant HPK1 (Q92918 whole entry): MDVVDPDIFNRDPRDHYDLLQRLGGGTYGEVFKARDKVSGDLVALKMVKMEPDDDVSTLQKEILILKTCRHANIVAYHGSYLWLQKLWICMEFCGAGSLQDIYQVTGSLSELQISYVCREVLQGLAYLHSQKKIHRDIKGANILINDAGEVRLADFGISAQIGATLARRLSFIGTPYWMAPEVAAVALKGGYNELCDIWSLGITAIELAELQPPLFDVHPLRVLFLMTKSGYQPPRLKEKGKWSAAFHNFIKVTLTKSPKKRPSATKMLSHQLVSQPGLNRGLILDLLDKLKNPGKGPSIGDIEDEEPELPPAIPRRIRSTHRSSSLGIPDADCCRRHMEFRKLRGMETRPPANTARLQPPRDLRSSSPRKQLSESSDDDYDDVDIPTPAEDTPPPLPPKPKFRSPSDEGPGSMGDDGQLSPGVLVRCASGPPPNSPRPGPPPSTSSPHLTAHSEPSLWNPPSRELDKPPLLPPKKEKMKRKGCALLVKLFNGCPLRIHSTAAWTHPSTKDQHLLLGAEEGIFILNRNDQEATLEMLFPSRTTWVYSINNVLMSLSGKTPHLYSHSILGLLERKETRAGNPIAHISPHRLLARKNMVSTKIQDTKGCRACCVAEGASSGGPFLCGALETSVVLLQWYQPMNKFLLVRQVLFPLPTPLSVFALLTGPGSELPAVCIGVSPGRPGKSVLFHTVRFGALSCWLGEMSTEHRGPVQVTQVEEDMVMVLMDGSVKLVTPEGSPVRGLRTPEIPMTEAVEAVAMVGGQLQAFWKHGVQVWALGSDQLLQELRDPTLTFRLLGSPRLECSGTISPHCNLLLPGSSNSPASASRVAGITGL

`CNCc1nc(N2[C@H](C)CC[C@H]2C)cc2c1CN(c1cccc(-c3nnc(C)n3C(C)C)n1)C2=O` [Example 116, 6-[(2R,5R)-2,5-dimethylpyrrolidin-1-yl]-4-[(methylamino)methyl]-2-{6-[5-methyl-4-(propan-2-yl)-4H-1,2,4-triazol-3-yl]pyridin-2-yl}-2,3-dihydro-1H-pyrrolo[3,4-c]pyridin-1-one] was tested, and the Ki [1] was 1.04 nM and the IC50 [2] was 381 nM.
For `CCC(CC)n1cnnc1-c1cccc(N2Cc3c(cc(N(C)C)nc3CN)C2=O)n1` [Example 117, 4-(aminomethyl)-6-(dimethylamino)-2-{6-[4-(pentan-3-yl)-4H-1,2,4-triazol-3-yl]pyridin-2-yl}-2,3-dihydro-1H-pyrrolo[3,4-c]pyridin-1-one], the Ki [1] was 0.46 nM and the IC50 [2] was 89 nM.
`CNCc1nc(N2[C@H](C)CC[C@H]2C)cc2c1CN(c1cccc(N3C(=O)OC[C@@H]3CF)n1)C2=O` [Example 118, 6-[(2R,5R)-2,5-dimethylpyrrolidin-1-yl]-2-{6-[(4R)-4-(fluoromethyl)-2-oxo-1,3-oxazolidin-3-yl]pyridin-2-yl}-4-[(methylamino)methyl]-2,3-dihydro-1H-pyrrolo[3,4-c]pyridin-1-one] was tested, and the Ki [1] was 0.89 nM and the IC50 [2] was 149 nM.
`CCC(CC)n1cnnc1-c1cccc(N2Cc3c(cc(N4[C@H](C)CC[C@H]4C)nc3CN)C2=O)n1` [Example 119, 4-(aminomethyl)-6-[(2R,5R)-2,5-dimethylpyrrolidin-1-yl]-2-{6-[4-(pentan-3-yl)-4H-1,2,4-triazol-3-yl]pyridin-2-yl}-2,3-dihydro-1H-pyrrolo[3,4-c]pyridin-1-one] was tested, and the Ki [1] was 0.52 nM and the IC50 [2] was 104 nM.
For `CCCn1cnnc1-c1cccc(N2Cc3c(cc(N4CCC[C@@H]4C(F)(F)F)nc3CNC)C2=O)n1` [Example 120, 4-[(methylamino)methyl]-2-[6-(4-propyl-4H-1,2,4-triazol-3-yl)pyridin-2-yl]-6-[(2R)-2-(trifluoromethyl)pyrrolidin-1-yl]-2,3-dihydro-1H-pyrrolo[3,4-c]pyridin-1-one], the Ki [1] was < 0.09 nM and the IC50 [2] was 56 nM.
In the case of `CCC(CC)n1cnnc1-c1cccc(N2Cc3c(cc(N(CC)CC)nc3CN)C2=O)n1` [Example 122, 4-(aminomethyl)-6-(diethylamino)-2-{6-[4-(pentan-3-yl)-4H-1,2,4-triazol-3-yl]pyridin-2-yl}-2,3-dihydro-1H-pyrrolo[3,4-c]pyridin-1-one], the Ki [1] is reported as 0.41 nM and the IC50 [2] is reported as 70 nM.
With `CCN(c1cc2c(c(CN)n1)CN(c1cccc(N3C(=O)OC[C@@H]3CF)n1)C2=O)C(C)C` [Example 123, 4-(aminomethyl)-6-[ethyl(propan-2-yl)amino]-2-{6-[(4R)-4-(fluoromethyl)-2-oxo-1,3-oxazolidin-3-yl]pyridin-2-yl}-2,3-dihydro-1H-pyrrolo[3,4-c]pyridin-1-one] the Ki [1] was 1.03 nM and the IC50 [2] was 273 nM.
`C[C@@H]1CC[C@@H](C)N1c1cc2c(c(CN)n1)CN(c1cccc(N3C(=O)OC[C@@H]3CF)n1)C2=O` [Example 124, 4-(aminomethyl)-6-[(2R,5R)-2,5-dimethylpyrrolidin-1-yl]-2-{6-[(4R)-4-(fluoromethyl)-2-oxo-1,3-oxazolidin-3-yl]pyridin-2-yl}-2,3-dihydro-1H-pyrrolo[3,4-c]pyridin-1-one] showed a Ki [1] of 1.5 nM and an IC50 [2] of 375 nM.
`C[C@@H]1CCCN1c1cc2c(c(CN)n1)CN(c1cccc(N3C(=O)OC[C@@H]3C)n1)C2=O` [Example 125, 4-(aminomethyl)-2-{6-[(4S)-4-methyl-2-oxo-1,3-oxazolidin-3-yl]pyridin-2-yl}-6-[(2R)-2-methylpyrrolidin-1-yl]-2,3-dihydro-1H-pyrrolo[3,4-c]pyridin-1-one] gave a Ki [1] of 0.1 nM and an IC50 [2] of 50 nM.
In the case of `CCC(CC)n1cnnc1-c1cccc(N2Cc3c(cc(C4(C)CC4)nc3CN)C2=O)n1` [Example 126, 4-(aminomethyl)-6-(1-methylcyclopropyl)-2-{6-[4-(pentan-3-yl)-4H-1,2,4-triazol-3-yl]pyridin-2-yl}-2,3-dihydro-1H-pyrrolo[3,4-c]pyridin-1-one], the Ki [1] is reported as 0.8 nM and the IC50 [2] is reported as 114 nM.
With `CCn1c(C)nnc1-c1cccc(N2Cc3c(cc(C4(C)CC4)nc3CN)C2=O)n1` [Example 127, 4-(aminomethyl)-2-[6-(4-ethyl-5-methyl-4H-1,2,4-triazol-3-yl)pyridin-2-yl]-6-(1-methylcyclopropyl)-2,3-dihydro-1H-pyrrolo[3,4-c]pyridin-1-one] the Ki [1] was 1.52 nM and the IC50 [2] was 435 nM.
`CCCn1c(C)nnc1-c1cccc(N2Cc3c(cc(C4(C)CC4)nc3CN)C2=O)n1` [Example 128, 4-(aminomethyl)-6-(1-methylcyclopropyl)-2-[6-(5-methyl-4-propyl-4H-1,2,4-triazol-3-yl)pyridin-2-yl]-2,3-dihydro-1H-pyrrolo[3,4-c]pyridin-1-one] was tested, and the Ki [1] was 0.63 nM and the IC50 [2] was 874 nM.
Molecule `CCC(CC)n1cnnc1-c1cccc(N2Cc3c(cc(C4CC4)nc3CN)C2=O)n1` [Example 129, 4-(aminomethyl)-6-cyclopropyl-2-{6-[4-(pentan-3-yl)-4H-1,2,4-triazol-3-yl]pyridin-2-yl}-2,3-dihydro-1H-pyrrolo[3,4-c]pyridin-1-one] has a Ki [1] of 0.31 nM and an IC50 [2] of 93 nM.
`CCCn1c(C)nnc1-c1cccc(N2Cc3c(cc(N(C)CC)nc3CNC)C2=O)n1` [Example 130, 6-[ethyl(methyl)amino]-4-[(methylamino)methyl]-2-[6-(5-methyl-4-propyl-4H-1,2,4-triazol-3-yl)pyridin-2-yl]-2,3-dihydro-1H-pyrrolo[3,4-c]pyridin-1-one] gave a Ki [1] of 0.78 nM and an IC50 [2] of 201 nM.
`CCN(C)c1cc2c(c(CNC)n1)CN(c1cccc(-c3nncn3CC)n1)C2=O` [Example 131, 6-[ethyl(methyl)amino]-2-[6-(4-ethyl-4H-1,2,4-triazol-3-yl)pyridin-2-yl]-4-[(methylamino)methyl]-2,3-dihydro-1H-pyrrolo[3,4-c]pyridin-1-one] was tested, and the Ki [1] was 0.11 nM and the IC50 [2] was 57 nM.
`C[C@H]1CCCN1c1cc2c(c(CN)n1)CN(c1cccc(N3C(=O)OC[C@@H]3C)n1)C2=O` [Example 132, 4-(aminomethyl)-2-{6-[(4S)-4-methyl-2-oxo-1,3-oxazolidin-3-yl]pyridin-2-yl}-6-[(2S)-2-methylpyrrolidin-1-yl]-2,3-dihydro-1H-pyrrolo[3,4-c]pyridin-1-one] showed a Ki [1] of 0.2 nM and an IC50 [2] of 67 nM.
`CCC(CC)n1c(C)nnc1-c1cccc(N2Cc3c(cc(N4CCC[C@@H]4C)nc3CNC)C2=O)n1` [Example 135, 4-[(methylamino)methyl]-2-{6-[5-methyl-4-(pentan-3-yl)-4H-1,2,4-triazol-3-yl]pyridin-2-yl}-6-[(2S)-2-methylpyrrolidin-1-yl]-2,3-dihydro-1H-pyrrolo[3,4-c]pyridin-1-one] was tested, and the Ki [1] was 0.8 nM and the IC50 [2] was > 10000 nM.
With `CCCn1cnnc1-c1cccc(N2Cc3c(cc(N4[C@H](C)CC[C@H]4C)nc3CN)C2=O)n1` [Example 136, 4-(aminomethyl)-6-[(2R,5R)-2,5-dimethylpyrrolidin-1-yl]-2-[6-(4-propyl-4H-1,2,4-triazol-3-yl)pyridin-2-yl]-2,3-dihydro-1H-pyrrolo[3,4-c]pyridin-1-one] the Ki [1] was 0.73 nM and the IC50 [2] was 106 nM.
With `C[C@@H]1CC[C@@H](C)N1c1cc2c(c(CN)n1)CN(c1cccc(N3C(=O)OC[C@@H]3C)n1)C2=O` [Example 137, 4-(aminomethyl)-6-[(2R,5R)-2,5-dimethylpyrrolidin-1-yl]-2-{6-[(4S)-4-methyl-2-oxo-1,3-oxazolidin-3-yl]pyridin-2-yl}-2,3-dihydro-1H-pyrrolo[3,4-c]pyridin-1-one] the Ki [1] was 0.28 nM and the IC50 [2] was 76 nM.
For `CCC(CC)n1cnnc1-c1cccc(N2Cc3c(cc(N4CCC[C@@H]4C)nc3CNC)C2=O)n1` [Example 138, 4-[(methylamino)methyl]-6-[(2S)-2-methylpyrrolidin-1-yl]-2-{6-[4-(pentan-3-yl)-4H-1,2,4-triazol-3-yl]pyridin-2-yl}-2,3-dihydro-1H-pyrrolo[3,4-c]pyridin-1-one], the Ki [1] was 0.09 nM and the IC50 [2] was > 10000 nM.
`CC[C@@H](C)n1cnnc1-c1cccc(N2Cc3c(cc(C4(C)CC4)nc3CNC)C2=O)n1` [Example 139, 2-(6-{4-[(2R)-butan-2-yl]-4H-1,2,4-triazol-3-yl}pyridin-2-yl)-4-[(methylamino)methyl]-6-(1-methylcyclopropyl)-2,3-dihydro-1H-pyrrolo[3,4-c]pyridin-1-one] gave a Ki [1] of 0.46 nM and an IC50 [2] of 266 nM.
Molecule `CCN(c1cc2c(c(CN)n1)CN(c1cccc(-c3nncs3)n1)C2=O)C(C)C` [Example 140, 4-(aminomethyl)-6-[ethyl(propan-2-yl)amino]-2-[6-(1,3,4-thiadiazol-2-yl)pyridin-2-yl]-2,3-dihydro-1H-pyrrolo[3,4-c]pyridin-1-one] has a Ki [1] of 2.07 nM and an IC50 [2] of 464 nM.
For `CCN(c1cc2c(c(CN)n1)CN(c1cccc(-c3nncn3CC)n1)C2=O)C(C)C` [Example 141, 4-(aminomethyl)-6-[ethyl(propan-2-yl)amino]-2-[6-(4-ethyl-4H-1,2,4-triazol-3-yl)pyridin-2-yl]-2,3-dihydro-1H-pyrrolo[3,4-c]pyridin-1-one], the Ki [1] was 0.74 nM and the IC50 [2] was 122 nM.
With `CCC(CC)n1cnnc1-c1cccc(N2Cc3c(cc(C4CC4)nc3CNC)C2=O)n1` [Example 142, 6-cyclopropyl-4-[(methylamino)methyl]-2-{6-[4-(pentan-3-yl)-4H-1,2,4-triazol-3-yl]pyridin-2-yl}-2,3-dihydro-1H-pyrrolo[3,4-c]pyridin-1-one] the Ki [1] was 0.52 nM and the IC50 [2] was 239 nM.
`CCC(CC)n1cnnc1-c1cccc(N2Cc3c(cc(N4CCC[C@H]4C)nc3CN)C2=O)n1` [Example 143, 4-(aminomethyl)-6-[(2R)-2-methylpyrrolidin-1-yl]-2-{6-[4-(pentan-3-yl)-4H-1,2,4-triazol-3-yl]pyridin-2-yl}-2,3-dihydro-1H-pyrrolo[3,4-c]pyridin-1-one] showed a Ki [1] of 0.09 nM and an IC50 [2] of 28 nM.
